Test system: isolated rat soleus muscle
Experiment: Ex vivo isolated rat soleus muscle: residual contractile force in high KCl (12.5 mM) buffer
Conditions: salbutamol 1 μM alone (control group); 30 min in KCl 12.5 mM buffer, relative to last force in initial buffer
Source text: The isolated rat muscle either soleus muscle or extensor digitorum longus muscle is a well-characterized and well-validated model for the study of the function of the Na^+/K^+ ATPase. The isolated rat soleus muscle is particularly appropriate for experiments ex vivo as it is very thin so that there is no need for blood supply. […] In the experimental setting used, the high KCl concentration buffer causes partial depolarization that leads to sodium influx to disturb and to decrease excitability to subsequently reduce muscle force. Stimulation of Na^+/K^+ ATPase lowers intracellular sodium levels towards physiological levels to restore excitability and muscular force during electrical stimulation.
As the phosphodiesterase isoenzyme subtype 7 (PDE7) is the predominant PDE isoenzyme in skeletal muscle to raise cAMP this ex vivo model is suited for the testing the effect of PDE7 inhibitors and in particular their effect on force generation disturbed by mechanisms that worsen excitability or the energetic situation. […] High level activity of Na^+/K^+ ATPase stimulated by cAMP can counteract the decrease in excitability and the loss of force. […]
Force measurement: The experimental set-up used for force measurements allowed for the simultaneous recordings from 6 muscles in separate incubation chambers in parallel. Force was recorded and stored with a Notocord HEM data acquisition system. […]

Compound: CC(C)(C)NCC(O)c1ccc(O)c(CO)c1 (stereo not shown) [Salbutamol]
- Mean residual contractile force in % (SEM in %): 26.6 (3.7); n = 31%

— US20260048059A1, “USE OF SUBSTITUTED BENZOXAZOLE AND BENZOFURAN COMPOUNDS FOR THE TREATMENT AND PREVENTION OF DISEASES ASSOCIATED WITH CHRONIC FATIGUE, EXHAUSTION AND/OR EXERTIONAL INTOLERANC” (MITODICURE GMBH, priority 2022, published 2026)
